According to US12466812B2, “Pyridinyltriazine derivative having protein kinase inhibitory activity, and pharmaceutical composition for preventing, ameliorating, or treating cancer comprising same” (KOREA INSTITUTE OF SCIENCE AND TECHNOLOGY, priority 2019, dated 2025):
Each block holds one compound with its values, some of them ahead of it.

Legend:
[1] = molecular target: FGFR3 (Homo sapiens, UniProt P22607); settings: J. Med. Chem. 2011, 54:7066-7083; cited from earlier work
[2] = test system: RT112 bladder cancer cell line; settings: J. Med. Chem. 2011, 54:7066-7083; cited from earlier work
[3] = test system: AN3-CA, a uterine cancer cell line; experiment: Inhibitory activity against cancer cell proliferation (Experimental Example 2); format: cell-based; settings: Homo sapiens, Table 2
[4] = molecular target: FGFR2 mutant (N549H) (Homo sapiens, UniProt P21802, N549H); experiment: Pan-FGFR mutant enzymatic activity; format: biochemical; settings: mutant enzyme
Sequence of FGFR2 mutant (N549H) (P21802 22-821 N549H): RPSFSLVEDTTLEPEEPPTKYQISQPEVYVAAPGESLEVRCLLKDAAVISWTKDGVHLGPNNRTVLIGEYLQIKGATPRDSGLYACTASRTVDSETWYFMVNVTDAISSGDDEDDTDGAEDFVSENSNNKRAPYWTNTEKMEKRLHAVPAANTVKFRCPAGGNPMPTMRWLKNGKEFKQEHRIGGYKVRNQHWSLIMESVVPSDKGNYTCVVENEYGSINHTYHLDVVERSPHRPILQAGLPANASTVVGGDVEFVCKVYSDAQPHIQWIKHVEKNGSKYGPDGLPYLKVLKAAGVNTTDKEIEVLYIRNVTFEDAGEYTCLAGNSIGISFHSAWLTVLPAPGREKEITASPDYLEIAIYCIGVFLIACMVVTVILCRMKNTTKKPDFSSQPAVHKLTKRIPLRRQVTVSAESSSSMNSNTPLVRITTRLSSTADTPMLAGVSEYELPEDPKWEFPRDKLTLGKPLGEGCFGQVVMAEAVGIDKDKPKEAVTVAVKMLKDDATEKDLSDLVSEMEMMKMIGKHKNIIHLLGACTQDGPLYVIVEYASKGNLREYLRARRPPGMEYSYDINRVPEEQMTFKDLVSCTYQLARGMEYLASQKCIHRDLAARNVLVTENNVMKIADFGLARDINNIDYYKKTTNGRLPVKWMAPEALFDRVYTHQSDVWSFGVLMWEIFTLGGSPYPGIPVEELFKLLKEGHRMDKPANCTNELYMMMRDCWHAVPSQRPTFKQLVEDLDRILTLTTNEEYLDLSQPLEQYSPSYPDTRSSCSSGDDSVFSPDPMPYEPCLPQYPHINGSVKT
Method: (§1) The inhibitory activity against pan-FGFR mutants of the compounds synthesized in Examples 1, 8, 13, 22, and 24 was measured, the inhibitory activity on each of enzymatic activity and cellular activity was evaluated, and the results are shown in Tables 3 and 4 below.

[5] = molecular target: FGFR2 mutant (V564F) (Homo sapiens, UniProt P21802, V564F); experiment: Pan-FGFR mutant enzymatic activity; format: biochemical; settings: mutant enzyme
Sequence of FGFR2 mutant (V564F) (P21802 22-821 V564F): as the sequence (P21802 22-821 N549H) above, with H528N, V543F counted along it
Method: as §1

[6] = molecular target: FGFR3 mutant (K650E) (Homo sapiens, UniProt P22607, K650E); experiment: Pan-FGFR mutant enzymatic activity; format: biochemical; settings: mutant enzyme
Sequence of FGFR3 mutant (K650E) (P22607 23-806 K650E): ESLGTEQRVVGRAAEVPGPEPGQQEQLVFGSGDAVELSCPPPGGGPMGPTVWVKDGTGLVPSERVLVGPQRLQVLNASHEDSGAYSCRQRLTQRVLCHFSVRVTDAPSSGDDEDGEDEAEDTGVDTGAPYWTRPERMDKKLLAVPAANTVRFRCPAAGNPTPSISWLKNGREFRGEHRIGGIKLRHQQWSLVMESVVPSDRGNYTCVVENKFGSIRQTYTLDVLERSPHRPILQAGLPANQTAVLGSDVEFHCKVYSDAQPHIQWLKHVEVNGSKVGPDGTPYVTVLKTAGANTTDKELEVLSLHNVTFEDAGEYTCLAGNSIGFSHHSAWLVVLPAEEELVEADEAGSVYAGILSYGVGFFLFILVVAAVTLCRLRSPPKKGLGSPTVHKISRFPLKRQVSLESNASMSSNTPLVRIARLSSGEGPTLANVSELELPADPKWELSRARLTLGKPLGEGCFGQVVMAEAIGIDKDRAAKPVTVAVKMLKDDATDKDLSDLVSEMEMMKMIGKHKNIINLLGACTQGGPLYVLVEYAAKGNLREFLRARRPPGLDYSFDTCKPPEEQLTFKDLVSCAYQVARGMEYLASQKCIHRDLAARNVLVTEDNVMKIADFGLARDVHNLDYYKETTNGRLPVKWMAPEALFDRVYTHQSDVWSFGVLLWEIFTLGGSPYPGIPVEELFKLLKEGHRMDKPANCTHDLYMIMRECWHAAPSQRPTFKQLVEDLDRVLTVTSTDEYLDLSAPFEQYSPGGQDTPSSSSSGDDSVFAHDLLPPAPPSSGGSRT
Method: as §1

[7] = molecular target: FGFR3 mutant (K650M) (Homo sapiens, UniProt P22607, K650M); experiment: Pan-FGFR mutant enzymatic activity; format: biochemical; settings: mutant enzyme
Sequence of FGFR3 mutant (K650M) (P22607 23-806 K650M): as the sequence (P22607 23-806 K650E) above, with E628M counted along it
Method: as §1

[8] = molecular target: FGFR3 mutant (V555M) (Homo sapiens, UniProt P22607, V555M); experiment: Pan-FGFR mutant enzymatic activity; format: biochemical; settings: mutant enzyme
Sequence of FGFR3 mutant (V555M) (P22607 23-806 V555M): as the sequence (P22607 23-806 K650E) above, with V533M, E628K counted along it
Method: as §1

[9] = test system: AN3-CA; experiment: Pan-FGFR mutant cellular activity; format: cell-based; settings: Homo sapiens, mutant cell, Table 4, read-out: GI50, AN3-CA (breast cancer cell line)
Method: as §1

[10] = test system: J82 (bladder cancer cell line); experiment: Pan-FGFR mutant cellular activity; format: cell-based; settings: Table 4
Method: as §1

[11] = test system: KMS-11 (myeloma cell line); experiment: Pan-FGFR mutant cellular activity; format: cell-based; settings: Homo sapiens, Table 4
Method: as §1

[12] = test system: UMUC3 (bladder cancer cell line); experiment: Pan-FGFR mutant cellular activity; format: cell-based; settings: Homo sapiens, Table 4
Method: as §1

[13] = molecular target: T1, CYP1A2 (Homo sapiens, UniProt P05177); experiment: Inhibitory activity against CYP metabolic enzyme; format: in vitro ADME
T1 sequence (P05177 1-516): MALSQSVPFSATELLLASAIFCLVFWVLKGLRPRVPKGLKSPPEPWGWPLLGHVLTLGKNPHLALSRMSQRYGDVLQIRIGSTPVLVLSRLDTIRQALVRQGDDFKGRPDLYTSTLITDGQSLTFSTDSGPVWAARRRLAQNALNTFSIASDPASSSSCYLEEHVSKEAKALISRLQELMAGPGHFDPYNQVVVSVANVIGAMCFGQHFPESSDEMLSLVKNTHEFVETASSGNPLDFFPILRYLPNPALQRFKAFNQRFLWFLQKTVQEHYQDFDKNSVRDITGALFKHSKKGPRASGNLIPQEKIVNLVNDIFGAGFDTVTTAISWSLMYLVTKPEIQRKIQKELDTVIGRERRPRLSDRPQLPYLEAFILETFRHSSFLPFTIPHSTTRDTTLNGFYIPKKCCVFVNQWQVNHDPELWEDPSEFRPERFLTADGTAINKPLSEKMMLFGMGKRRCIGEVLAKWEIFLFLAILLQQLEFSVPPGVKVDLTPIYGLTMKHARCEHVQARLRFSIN
Method: (§2) In order to determine whether or not there is a possibility that the compounds synthesized in Examples 1, 22, and 24 of the present invention can cause side effects of drug interaction, the rate (%) of inhibition against 5 major metabolic enzymes (CYP1A2, CYP2C9, CYP2C19, CYP2D6, and CYP3A4) among CYPs (cytochrome P450), which are enzymes involved in oxidative metabolism of drugs, was measured. […] That is, it can be seen that the compound of the present invention has a low possibility of causing side effects of drug interaction.

[14] = molecular target: CYP2C19 (Homo sapiens, UniProt P33261); experiment: Inhibitory activity against CYP metabolic enzyme; format: in vitro ADME
Sequence of CYP2C19 (P33261 whole entry): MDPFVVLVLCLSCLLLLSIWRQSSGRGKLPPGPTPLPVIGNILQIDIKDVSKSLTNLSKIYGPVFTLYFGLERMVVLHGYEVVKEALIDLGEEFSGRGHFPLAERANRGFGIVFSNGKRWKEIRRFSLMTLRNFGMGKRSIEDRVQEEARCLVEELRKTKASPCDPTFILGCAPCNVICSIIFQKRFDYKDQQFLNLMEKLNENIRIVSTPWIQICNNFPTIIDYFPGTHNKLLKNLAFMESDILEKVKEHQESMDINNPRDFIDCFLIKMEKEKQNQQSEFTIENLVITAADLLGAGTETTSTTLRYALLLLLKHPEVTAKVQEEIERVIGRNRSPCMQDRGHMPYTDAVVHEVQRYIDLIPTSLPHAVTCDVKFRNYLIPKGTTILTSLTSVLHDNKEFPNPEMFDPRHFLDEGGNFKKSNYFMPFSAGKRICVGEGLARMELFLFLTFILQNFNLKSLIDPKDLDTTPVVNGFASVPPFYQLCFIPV
Method: as §2

[15] = molecular target: CYP2C9 (Homo sapiens, UniProt P11712); experiment: Inhibitory activity against CYP metabolic enzyme; format: in vitro ADME
Sequence of CYP2C9 (P11712 whole entry): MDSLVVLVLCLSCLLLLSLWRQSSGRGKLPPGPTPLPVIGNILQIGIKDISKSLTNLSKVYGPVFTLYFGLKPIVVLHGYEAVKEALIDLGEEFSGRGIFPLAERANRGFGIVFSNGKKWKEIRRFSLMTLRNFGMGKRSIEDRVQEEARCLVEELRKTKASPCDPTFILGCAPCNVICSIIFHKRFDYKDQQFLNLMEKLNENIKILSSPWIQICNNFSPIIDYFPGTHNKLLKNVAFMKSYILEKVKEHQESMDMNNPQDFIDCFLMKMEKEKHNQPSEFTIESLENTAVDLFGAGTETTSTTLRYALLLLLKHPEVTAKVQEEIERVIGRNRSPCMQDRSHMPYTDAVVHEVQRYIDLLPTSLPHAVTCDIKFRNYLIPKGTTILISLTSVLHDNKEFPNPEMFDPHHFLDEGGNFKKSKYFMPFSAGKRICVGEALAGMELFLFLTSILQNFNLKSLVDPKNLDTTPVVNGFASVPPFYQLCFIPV
Method: as §2

[16] = molecular target: CYP2D6 (Homo sapiens, UniProt P10635); experiment: Inhibitory activity against CYP metabolic enzyme; format: in vitro ADME
Sequence of CYP2D6 (P10635 whole entry): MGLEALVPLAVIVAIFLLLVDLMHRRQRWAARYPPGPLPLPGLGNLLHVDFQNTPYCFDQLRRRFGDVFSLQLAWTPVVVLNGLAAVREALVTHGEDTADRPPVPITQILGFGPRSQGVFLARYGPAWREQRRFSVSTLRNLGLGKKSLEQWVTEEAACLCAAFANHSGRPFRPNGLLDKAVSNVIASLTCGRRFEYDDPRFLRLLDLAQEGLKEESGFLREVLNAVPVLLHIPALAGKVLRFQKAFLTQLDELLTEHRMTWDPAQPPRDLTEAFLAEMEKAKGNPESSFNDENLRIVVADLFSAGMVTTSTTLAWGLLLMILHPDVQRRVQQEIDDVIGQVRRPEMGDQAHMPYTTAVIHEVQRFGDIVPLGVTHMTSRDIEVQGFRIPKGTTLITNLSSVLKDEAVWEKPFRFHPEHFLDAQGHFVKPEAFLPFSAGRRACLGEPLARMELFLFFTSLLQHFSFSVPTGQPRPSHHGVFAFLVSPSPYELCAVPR
Method: as §2

[17] = molecular target: CYP3A4 (Homo sapiens, UniProt P08684); experiment: Inhibitory activity against CYP metabolic enzyme; format: in vitro ADME
Sequence of CYP3A4 (P08684 whole entry): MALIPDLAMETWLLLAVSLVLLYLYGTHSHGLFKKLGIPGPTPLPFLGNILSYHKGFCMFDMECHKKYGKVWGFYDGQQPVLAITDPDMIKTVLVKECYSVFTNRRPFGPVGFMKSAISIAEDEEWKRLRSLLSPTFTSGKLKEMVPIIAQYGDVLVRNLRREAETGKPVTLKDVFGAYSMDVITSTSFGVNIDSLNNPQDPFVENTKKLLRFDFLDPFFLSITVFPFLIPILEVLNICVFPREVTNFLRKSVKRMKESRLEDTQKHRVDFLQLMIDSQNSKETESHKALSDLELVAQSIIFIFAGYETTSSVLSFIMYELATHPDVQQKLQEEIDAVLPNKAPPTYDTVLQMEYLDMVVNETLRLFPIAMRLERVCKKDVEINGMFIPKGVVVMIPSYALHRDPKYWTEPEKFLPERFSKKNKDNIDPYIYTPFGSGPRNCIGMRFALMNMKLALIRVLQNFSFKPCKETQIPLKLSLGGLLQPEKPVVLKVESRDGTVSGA
Method: as §2

[18] = Microsomal stability; format: in vitro ADME; settings: human liver microsomes, based on sample taken at 0 minutes
[19] = Microsomal stability; format: in vitro ADME; settings: dog liver microsomes, based on sample taken at 0 minutes
[20] = Microsomal stability; format: in vitro ADME; settings: rat liver microsomes, based on sample taken at 0 minutes
[21] = Microsomal stability; format: in vitro ADME; settings: mouse liver microsomes, based on sample taken at 0 minutes

Sequence of FGFR3 (P22607 23-806): as the sequence (P22607 23-806 K650E) above, with E628K counted along it

Compound: CCN1CCN(c2ccc(Nc3cc(N(C)C(=O)Nc4c(Cl)c(OC)cc(OC)c4Cl)ncn3)cc2)CC1 [3-(2,6-dichloro-3,5-dimethoxyphenyl)-1-6-[4-(4-ethyl-piperazin-1-yl)phenylamino]pyrimidine-4-yl-1-methyl urea]
inhibitory activity against FGFR3 [1]: selective inhibitory activity
anticancer activity against the RT112 bladder cancer cell line [2]: effective anticancer activity

GI50 [3]: < 1000 nM
IC50 [4]: < 100 nM
IC50 [5]: 100 to 1000 nM
IC50 [6]: < 100 nM
IC50 [7]: < 100 nM
IC50 [8]: < 100 nM
GI50 [10]: < 1000 nM
GI50 [11]: < 1000 nM
GI50 [12]: < 1000 nM
rate (%) of inhibition, CYP1A2 [13]: 75.9%
rate (%) of inhibition, CYP2C19 [14]: 44.6%
rate (%) of inhibition, CYP2C9 [15]: 79.1%
rate (%) of inhibition, CYP2D6 [16]: 81.0%
rate (%) of inhibition, CYP3A4 [17]: 17.6%
remaining (%) after reaction with the microsome, Human [18]: 21.8%
remaining (%) after reaction with the microsome, Human ([18]; listed as Compound No. 22): 21.8%
remaining (%) after reaction with the microsome, Dog [19]: 8.3%
remaining (%) after reaction with the microsome, Dog ([19]; listed as Compound No. 22): 8.3%
remaining (%) after reaction with the microsome, Rat [20]: 7.7%
remaining (%) after reaction with the microsome, Rat ([20]; listed as Compound No. 22): 7.7%
remaining (%) after reaction with the microsome, Mouse [21]: 11.5%
remaining (%) after reaction with the microsome, Mouse ([21]; listed as Compound No. 22): 11.5%
Compound: COc1cc(OC)c(Cl)c(Nc2ncccc2-c2ncnc(Nc3cnn(C4CCN(C(C)C)CC4)c3)n2)c1Cl [Example 22]
GI50 [9]: < 1000 nM
